Measured values as given in patent publication US10538535B2, “Antitumoral compounds” (priority 2017, dated 2020).
Like-named read-outs stand apart in the source and are kept apart here.

Columns and labels:
A549 cells = experiment: cells; settings: Homo sapiens, A549, 72 h
How it was run: (§1)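 Human cancer lines grown in DMEM plus 10% FBS at 37° C. were plated at 5000 cells/well and left 18 hours before dosing. Test compounds (10 to 0.003 μg/mL, triplicates) acted for 72 hours, after which glutaraldehyde-fixed cells were stained with sulforhodamine B.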

HT29 cells = experiment: cells; settings: Homo sapiens, HT-29, 72 h
How it was run: as §1

MDA-MB-231 cells = experiment: cells; settings: Homo sapiens, MDA-MB-231, 72 h
How it was run: as §1

PSN1 cells = experiment: cells; settings: Homo sapiens, PSN1, 72 h
How it was run: as §1

MDA-MB-231 tumors = settings: iv, 0.5 mg/kg
Method: (§2) Female athymic nu/nu mice (Harlan Laboratories Models, S. L. Barcelona, Spain or Envigo, Spain) were utilized for all experiments. Animal were housed in individually ventilated cages Sealsafe® Plus, Techniplast S.P.A.), up to ten per cage on a 12-hour light-dark cycle at 21-23° C. and 40-60% humidity. […] Animals were acclimated for at least 5 days prior to tumor implantation with a tumor cell suspension.
MDA-MB-231 cells were maintained in vitro at 37° C. with 5% CO2 in Dulbecco's Modified Eagle's Medium (Sigma-Aldrich, Co). Culture cells were passaged every 3 to 5 days upon reaching confluence.
(§3) Treatment tolerability was assessed by monitoring body weight evolution, clinical signs of systemic toxicity, as well as evidences of local damage in the injection site.
(§4) In xenograft studies with other cell lines: • Tumor volume was calculated using the equation (a·b^2)/2, where a: length (longest diameter) and b: width (shortest diameter) were measured in mm by using digital caliper (Fowler Sylvac, S235PAT).
(§5) Treatments producing >20% lethality and/or 20% net body weight loss were considered toxic.

H460 tumors = settings: iv, 0.5 mg/kg
Method: as §2
H460 cells were maintained in vitro at 37° C. with 5% CO2 in Dulbecco's Modified Eagle's Medium (Sigma-Aldrich, Co). Culture cells were passaged every 3 to 5 days upon reaching confluence. Each animal was subcutaneously implanted (on the right flank using 26 G needle and a 1 cc syringe) at 4-6 weeks of age with 5×10^6 H460 cells suspended in 0.05 mL of a solution consisting of 50% Matrigel® (Corning Incorporated Life Sciences) and 50% medium without serum or antibiotics.
as §3, §5

A2780 tumors = settings: A2780 xenograft
Method: as §2
Culture cells were passaged every 3 to 5 days upon reaching confluence. Each animal was subcutaneously implanted (on the right flank using 26 G needle and a 1 cc syringe) at 4-6 weeks of age with 10×10^6 A2780 cells suspended in 0.05 mL of a solution consisting of 50% Matrigel® (Corning Incorporated Life Sciences) and 50% medium without serum or antibiotics.
as §3, §4, §5

H82 tumors = experiment: In vivo xenograft, human lung (SCLC) H82; settings: iv weekly, 32 and ET-736 0.5 mg/Kg
H526 tumors = experiment: In vivo xenograft, human lung (SCLC) H526; settings: iv weekly, 32 and ET-736 0.5 mg/Kg

## COc1c(C)cc2c(c1O)[C@@H]1[C@@H]3[C@@H]4SC[C@]5(NCCc6c5[nH]c5ccccc65)C(=O)OC[C@@H](c5c6c(c(C)c(OC(C)=O)c54)OCO6)N3[C@@H](O)[C@H](C2)N1C [ET-736, Ecteinascidin 736]
A549 cells
  GI50: 22.5 nM
A549 cells; read-out: LC50
  CC50: > 132 nM
A549 cells; read-out: TGI
  IC (TGI): 0.0477 µM
HT29 cells
  GI50: 21.2 nM
HT29 cells; read-out: LC50
  CC50: > 132 nM
HT29 cells; read-out: TGI
  IC (TGI): 0.0225 µM
MDA-MB-231 cells
  GI50: 21.2 nM
MDA-MB-231 cells; read-out: LC50
  CC50: 47.7 nM
MDA-MB-231 cells; read-out: TGI
  IC (TGI): 0.0252 µM
PSN1 cells
  GI50: 39.7 nM
PSN1 cells; read-out: LC50
  CC50: 102 nM
PSN1 cells; read-out: TGI
  IC (TGI): 0.0596 µM
MDA-MB-231 tumors; 0 h
  Median Tumor Volume: 150.0 mm^3
MDA-MB-231 tumors; 48 h
  Median Tumor Volume: 237.7 mm^3
MDA-MB-231 tumors; 120 h
  Median Tumor Volume: 302.1 mm^3
MDA-MB-231 tumors; 168 h
  Median Tumor Volume: 364.9 mm^3
MDA-MB-231 tumors; 336 h
  Median Tumor Volume: 398.3 mm^3
MDA-MB-231 tumors; 384 h
  Median Tumor Volume: 447.2 mm^3
MDA-MB-231 tumors; 456 h
  Median Tumor Volume: 485.0 mm^3
MDA-MB-231 tumors; 504 h
  Median Tumor Volume: 536.3 mm^3
MDA-MB-231 tumors; 552 h
  Median Tumor Volume: 669.8 mm^3
MDA-MB-231 tumors; 672 h
  Median Tumor Volume: 1046.1 mm^3
MDA-MB-231 tumors; 720 h
  Median Tumor Volume: 1315.9 mm^3
MDA-MB-231 tumors; 840 h
  Median Tumor Volume: 2007.7 mm^3
H460 tumors; 0 h
  Median Tumor Volume: 185.8 mm^3
H460 tumors; 48 h
  Median Tumor Volume: 457.8 mm^3
H460 tumors; 120 h
  Median Tumor Volume: 732.8 mm^3
H460 tumors; 168 h
  Median Tumor Volume: 930.1 mm^3
H460 tumors; 336 h
  Median Tumor Volume: 1845.5 mm^3
H460 tumors; 384 h
  Median Tumor Volume: 2025.0 mm^3
A2780 tumors; Day 0
  Median Tumor Volume: 168.8 mm^3
A2780 tumors; Day 2
  Median Tumor Volume: 251.2 mm^3
A2780 tumors; Day 5
  Median Tumor Volume: 382.6 mm^3
A2780 tumors; Day 7
  Median Tumor Volume: 676.1 mm^3
A2780 tumors; Day 9
  Median Tumor Volume: 959.4 mm^3
A2780 tumors; Day 12
  Median Tumor Volume: 1241.5 mm^3
A2780 tumors; Day 14
  Median Tumor Volume: 1582.7 mm^3
A2780 tumors; Day 16
  Median Tumor Volume: 1646.4 mm^3
A2780 tumors; Day 19
  Median Tumor Volume: 1845.5 mm^3
A2780 tumors; Day 21
  Median Tumor Volume: 2025.0 mm^3
H82 tumors; Table 64, Day 0
  Median Tumor Volume: 170.0 mm^3
H82 tumors; Table 64, Day 2
  Median Tumor Volume: 334.4 mm^3
H82 tumors; Table 64, Day 5
  Median Tumor Volume: 539.4 mm^3
H82 tumors; Table 64, Day 7
  Median Tumor Volume: 836.4 mm^3
H82 tumors; Table 64, Day 9
  Median Tumor Volume: 1013.1 mm^3
H82 tumors; Table 64, Day 12
  Median Tumor Volume: 1290.9 mm^3
H82 tumors; Table 64, Day 14
  Median Tumor Volume: 1648.0 mm^3
H526 tumors; Table 63, Day 0
  Median Tumor Volume: 213.5 mm^3
H526 tumors; Table 63, Day 2
  Median Tumor Volume: 240.5 mm^3
H526 tumors; Table 63, Day 4
  Median Tumor Volume: 97.2 mm^3
H526 tumors; Table 63, Day 7
  Median Tumor Volume: 48.8 mm^3
H526 tumors; Table 63, Day 9
  Median Tumor Volume: 62.5 mm^3
H526 tumors; Table 63, Day 11
  Median Tumor Volume: 62.5 mm^3
H526 tumors; Table 63, Day 14
  Median Tumor Volume: 47.3 mm^3
H526 tumors; Table 63, Day 16
  Median Tumor Volume: 32.0 mm^3
H526 tumors; Table 63, Day 21
  Median Tumor Volume: 4.0 mm^3
H526 tumors; Table 63, Day 28
  Median Tumor Volume: 4.0 mm^3
H526 tumors; Table 63, Day 35
  Median Tumor Volume: 4.0 mm^3
H526 tumors; Table 63, Day 42
  Median Tumor Volume: 4.0 mm^3
H526 tumors; Table 63, Day 49
  Median Tumor Volume: 4.0 mm^3
H526 tumors; Table 63, Day 56
  Median Tumor Volume: 4.0 mm^3
H526 tumors; Table 63, Day 63
  Median Tumor Volume: 4.0 mm^3
H526 tumors; Table 63, Day 70
  Median Tumor Volume: 4.0 mm^3
H526 tumors; Table 63, Day 77
  Median Tumor Volume: 4.0 mm^3
H526 tumors; Table 63, Day 84
  Median Tumor Volume: 199.8 mm^3
H526 tumors; Table 63, Day 91
  Median Tumor Volume: 786.5 mm^3
